# Laboratory results as given in patent US20230111310A1, “CARBOXYLIC ACID DERIVATIVE-SUBSTITUTED IMINO ARYL COMPOUND, PREPARATION METHOD THEREFOR, HERBICIDAL COMPOSITION AND USE THEREOF” (Qingdao Kingagroot Chemical Compound Co., Ltd., priority 2020, published 2023).
# Test system: Echinochloa crusgalli
# Test: Weeding effect in post-emergence stage
# Assay type: in vivo
# Details: Dose 15 g/ha; level of fresh weight growth control rate
# Outline: (§1)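 Weeds were treated post-emergence at 2-3 leaves with compound doses from 7.5 up to 500 g/ha, formulated in acetone–Tween 80 with methyl oleate synergist. Efficacy was assessed as growth control after 3 weeks.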
row,Compound,"Weeding effect in post-emergence stage, Echinochloa crusgalli"
1,CCCCCCCOC(=O)[C@@H](C)O/N=C/c1cc(-n2c(=O)cc(C(F)(F)F)n(C)c2=O)c(F)cc1Cl [205(R)],5 (Level 5: growth control rate is above 85%)
2,CCCCCCCCOC(=O)[C@@H](C)O/N=C/c1cc(-n2c(=O)cc(C(F)(F)F)n(C)c2=O)c(F)cc1Cl [206(R)],5 (Level 5: growth control rate is above 85%)
3,CCCCCCC(C)OC(=O)[C@@H](C)O/N=C/c1cc(-n2c(=O)cc(C(F)(F)F)n(C)c2=O)c(F)cc1Cl (stereo partly drawn) [207(R)],5 (Level 5: growth control rate is above 85%)
4,C=CCCOC(=O)[C@@H](C)O/N=C/c1cc(-n2c(=O)cc(C(F)(F)F)n(C)c2=O)c(F)cc1Cl [209(R)],5 (Level 5: growth control rate is above 85%)
5,C[C@@H](O/N=C/c1cc(-n2c(=O)cc(C(F)(F)F)n(C)c2=O)c(F)cc1Cl)C(=O)OC1CCCC1 [214(R)],5 (Level 5: growth control rate is above 85%)
6,C[C@@H](O/N=C/c1cc(-n2c(=O)cc(C(F)(F)F)n(C)c2=O)c(F)cc1Cl)C(=O)OCC(F)F [217(R)],5 (Level 5: growth control rate is above 85%)
7,C[C@@H](O/N=C/c1cc(-n2c(=O)cc(C(F)(F)F)n(C)c2=O)c(F)cc1Cl)C(=O)OCC(C)(F)F [220(R)],5 (Level 5: growth control rate is above 85%)
8,C[C@@H](O/N=C/c1cc(-n2c(=O)cc(C(F)(F)F)n(C)c2=O)c(F)cc1Cl)C(=O)OCCC(F)(F)F [221(R)],5 (Level 5: growth control rate is above 85%)

# Test system: Alopecurus japonicus
# Test: Weeding effect in post-emergence stage
# Assay type: in vivo
# Details: Dose 15 g/ha; level of fresh weight growth control rate
# Outline: as §1
row,Compound,"Weeding effect in post-emergence stage, Alopecurus japonicus"
1,CCCCCCCOC(=O)[C@@H](C)O/N=C/c1cc(-n2c(=O)cc(C(F)(F)F)n(C)c2=O)c(F)cc1Cl [205(R)],5 (Level 5: growth control rate is above 85%)
2,CCCCCCCCOC(=O)[C@@H](C)O/N=C/c1cc(-n2c(=O)cc(C(F)(F)F)n(C)c2=O)c(F)cc1Cl [206(R)],5 (Level 5: growth control rate is above 85%)
3,CCCCCCC(C)OC(=O)[C@@H](C)O/N=C/c1cc(-n2c(=O)cc(C(F)(F)F)n(C)c2=O)c(F)cc1Cl (stereo partly drawn) [207(R)],5 (Level 5: growth control rate is above 85%)
4,C=CCCOC(=O)[C@@H](C)O/N=C/c1cc(-n2c(=O)cc(C(F)(F)F)n(C)c2=O)c(F)cc1Cl [209(R)],5 (Level 5: growth control rate is above 85%)
5,C[C@@H](O/N=C/c1cc(-n2c(=O)cc(C(F)(F)F)n(C)c2=O)c(F)cc1Cl)C(=O)OC1CCCC1 [214(R)],5 (Level 5: growth control rate is above 85%)
6,C[C@@H](O/N=C/c1cc(-n2c(=O)cc(C(F)(F)F)n(C)c2=O)c(F)cc1Cl)C(=O)OCC(F)F [217(R)],5 (Level 5: growth control rate is above 85%)
7,C[C@@H](O/N=C/c1cc(-n2c(=O)cc(C(F)(F)F)n(C)c2=O)c(F)cc1Cl)C(=O)OCC(C)(F)F [220(R)],5 (Level 5: growth control rate is above 85%)
8,C[C@@H](O/N=C/c1cc(-n2c(=O)cc(C(F)(F)F)n(C)c2=O)c(F)cc1Cl)C(=O)OCCC(F)(F)F [221(R)],5 (Level 5: growth control rate is above 85%)

# Test system: Abutilon theophrasti
# Test: Weeding effect in post-emergence stage
# Assay type: in vivo
# Details: Dose 15 g/ha; level of fresh weight growth control rate
# Outline: as §1
row,Compound,"Weeding effect in post-emergence stage, Abutilon theophrasti"
1,CCCCCCCOC(=O)[C@@H](C)O/N=C/c1cc(-n2c(=O)cc(C(F)(F)F)n(C)c2=O)c(F)cc1Cl [205(R)],5 (Level 5: growth control rate is above 85%)
2,CCCCCCCCOC(=O)[C@@H](C)O/N=C/c1cc(-n2c(=O)cc(C(F)(F)F)n(C)c2=O)c(F)cc1Cl [206(R)],5 (Level 5: growth control rate is above 85%)
3,CCCCCCC(C)OC(=O)[C@@H](C)O/N=C/c1cc(-n2c(=O)cc(C(F)(F)F)n(C)c2=O)c(F)cc1Cl (stereo partly drawn) [207(R)],5 (Level 5: growth control rate is above 85%)
4,C=CCCOC(=O)[C@@H](C)O/N=C/c1cc(-n2c(=O)cc(C(F)(F)F)n(C)c2=O)c(F)cc1Cl [209(R)],5 (Level 5: growth control rate is above 85%)
5,C[C@@H](O/N=C/c1cc(-n2c(=O)cc(C(F)(F)F)n(C)c2=O)c(F)cc1Cl)C(=O)OC1CCCC1 [214(R)],5 (Level 5: growth control rate is above 85%)
6,C[C@@H](O/N=C/c1cc(-n2c(=O)cc(C(F)(F)F)n(C)c2=O)c(F)cc1Cl)C(=O)OCC(F)F [217(R)],5 (Level 5: growth control rate is above 85%)
7,C[C@@H](O/N=C/c1cc(-n2c(=O)cc(C(F)(F)F)n(C)c2=O)c(F)cc1Cl)C(=O)OCC(C)(F)F [220(R)],5 (Level 5: growth control rate is above 85%)
8,C[C@@H](O/N=C/c1cc(-n2c(=O)cc(C(F)(F)F)n(C)c2=O)c(F)cc1Cl)C(=O)OCCC(F)(F)F [221(R)],5 (Level 5: growth control rate is above 85%)

# Test system: Digitaria sanguinalis
# Test: Weeding effect in post-emergence stage
# Assay type: in vivo
# Details: Dose 15 g/ha; level of fresh weight growth control rate
# Outline: as §1
row,Compound,"Weeding effect in post-emergence stage, Digitaria sanguinalis"
1,CCCCCCCOC(=O)[C@@H](C)O/N=C/c1cc(-n2c(=O)cc(C(F)(F)F)n(C)c2=O)c(F)cc1Cl [205(R)],5 (Level 5: growth control rate is above 85%)
2,CCCCCCCCOC(=O)[C@@H](C)O/N=C/c1cc(-n2c(=O)cc(C(F)(F)F)n(C)c2=O)c(F)cc1Cl [206(R)],5 (Level 5: growth control rate is above 85%)
3,CCCCCCC(C)OC(=O)[C@@H](C)O/N=C/c1cc(-n2c(=O)cc(C(F)(F)F)n(C)c2=O)c(F)cc1Cl (stereo partly drawn) [207(R)],5 (Level 5: growth control rate is above 85%)
4,C=CCCOC(=O)[C@@H](C)O/N=C/c1cc(-n2c(=O)cc(C(F)(F)F)n(C)c2=O)c(F)cc1Cl [209(R)],5 (Level 5: growth control rate is above 85%)
5,C[C@@H](O/N=C/c1cc(-n2c(=O)cc(C(F)(F)F)n(C)c2=O)c(F)cc1Cl)C(=O)OC1CCCC1 [214(R)],5 (Level 5: growth control rate is above 85%)
6,C[C@@H](O/N=C/c1cc(-n2c(=O)cc(C(F)(F)F)n(C)c2=O)c(F)cc1Cl)C(=O)OCC(F)F [217(R)],5 (Level 5: growth control rate is above 85%)
7,C[C@@H](O/N=C/c1cc(-n2c(=O)cc(C(F)(F)F)n(C)c2=O)c(F)cc1Cl)C(=O)OCC(C)(F)F [220(R)],5 (Level 5: growth control rate is above 85%)
8,C[C@@H](O/N=C/c1cc(-n2c(=O)cc(C(F)(F)F)n(C)c2=O)c(F)cc1Cl)C(=O)OCCC(F)(F)F [221(R)],5 (Level 5: growth control rate is above 85%)

# Test system: Setaria viridis
# Test: Weeding effect in post-emergence stage
# Assay type: in vivo
# Details: Dose 15 g/ha; level of fresh weight growth control rate
# Outline: as §1
row,Compound,"Weeding effect in post-emergence stage, Setaria viridis"
1,CCCCCCCOC(=O)[C@@H](C)O/N=C/c1cc(-n2c(=O)cc(C(F)(F)F)n(C)c2=O)c(F)cc1Cl [205(R)],5 (Level 5: growth control rate is above 85%)
2,CCCCCCCCOC(=O)[C@@H](C)O/N=C/c1cc(-n2c(=O)cc(C(F)(F)F)n(C)c2=O)c(F)cc1Cl [206(R)],5 (Level 5: growth control rate is above 85%)
3,CCCCCCC(C)OC(=O)[C@@H](C)O/N=C/c1cc(-n2c(=O)cc(C(F)(F)F)n(C)c2=O)c(F)cc1Cl (stereo partly drawn) [207(R)],5 (Level 5: growth control rate is above 85%)
4,C=CCCOC(=O)[C@@H](C)O/N=C/c1cc(-n2c(=O)cc(C(F)(F)F)n(C)c2=O)c(F)cc1Cl [209(R)],5 (Level 5: growth control rate is above 85%)
5,C[C@@H](O/N=C/c1cc(-n2c(=O)cc(C(F)(F)F)n(C)c2=O)c(F)cc1Cl)C(=O)OC1CCCC1 [214(R)],5 (Level 5: growth control rate is above 85%)
6,C[C@@H](O/N=C/c1cc(-n2c(=O)cc(C(F)(F)F)n(C)c2=O)c(F)cc1Cl)C(=O)OCC(F)F [217(R)],5 (Level 5: growth control rate is above 85%)
7,C[C@@H](O/N=C/c1cc(-n2c(=O)cc(C(F)(F)F)n(C)c2=O)c(F)cc1Cl)C(=O)OCC(C)(F)F [220(R)],5 (Level 5: growth control rate is above 85%)
8,C[C@@H](O/N=C/c1cc(-n2c(=O)cc(C(F)(F)F)n(C)c2=O)c(F)cc1Cl)C(=O)OCCC(F)(F)F [221(R)],5 (Level 5: growth control rate is above 85%)

# Test system: Eleusine indica
# Test: Weeding effect in post-emergence stage
# Assay type: in vivo
# Details: Dose 15 g/ha; level of fresh weight growth control rate
# Outline: as §1
row,Compound,"Weeding effect in post-emergence stage, Eleusine indica"
1,CCCCCCCOC(=O)[C@@H](C)O/N=C/c1cc(-n2c(=O)cc(C(F)(F)F)n(C)c2=O)c(F)cc1Cl [205(R)],5 (Level 5: growth control rate is above 85%)
2,CCCCCCCCOC(=O)[C@@H](C)O/N=C/c1cc(-n2c(=O)cc(C(F)(F)F)n(C)c2=O)c(F)cc1Cl [206(R)],5 (Level 5: growth control rate is above 85%)
3,CCCCCCC(C)OC(=O)[C@@H](C)O/N=C/c1cc(-n2c(=O)cc(C(F)(F)F)n(C)c2=O)c(F)cc1Cl (stereo partly drawn) [207(R)],5 (Level 5: growth control rate is above 85%)
4,C=CCCOC(=O)[C@@H](C)O/N=C/c1cc(-n2c(=O)cc(C(F)(F)F)n(C)c2=O)c(F)cc1Cl [209(R)],5 (Level 5: growth control rate is above 85%)
5,C[C@@H](O/N=C/c1cc(-n2c(=O)cc(C(F)(F)F)n(C)c2=O)c(F)cc1Cl)C(=O)OC1CCCC1 [214(R)],5 (Level 5: growth control rate is above 85%)
6,C[C@@H](O/N=C/c1cc(-n2c(=O)cc(C(F)(F)F)n(C)c2=O)c(F)cc1Cl)C(=O)OCC(F)F [217(R)],5 (Level 5: growth control rate is above 85%)
7,C[C@@H](O/N=C/c1cc(-n2c(=O)cc(C(F)(F)F)n(C)c2=O)c(F)cc1Cl)C(=O)OCC(C)(F)F [220(R)],5 (Level 5: growth control rate is above 85%)
8,C[C@@H](O/N=C/c1cc(-n2c(=O)cc(C(F)(F)F)n(C)c2=O)c(F)cc1Cl)C(=O)OCCC(F)(F)F [221(R)],5 (Level 5: growth control rate is above 85%)
